Reference: ChEMBL document CHEMBL1153245, “A profile of the in vitro anti-tumor activity of imidazolium-based ionic liquids” (2010)

Key:
Type in all cases: functional
K562 = test: Anticancer activity against human K562 cells assessed cell growth at 10 uM after 48 hrs by sulforhodamine B assay relative to control
IGROV-1 = test: Anticancer activity against human IGROV1 cells assessed cell growth at 10 uM after 48 hrs by sulforhodamine B assay relative to control
PC-3 = test: Anticancer activity against human PC3 cells assessed cell growth at 10 uM after 48 hrs by sulforhodamine B assay relative to control
M14 = test: Anticancer activity against human M14 cells assessed cell growth at 10 uM after 48 hrs by sulforhodamine B assay relative to control
LOX IMVI = test: Anticancer activity against human LOXIMVI cells assessed cell growth at 10 uM after 48 hrs by sulforhodamine B assay relative to control
HOP-62 = test: Anticancer activity against human HOP62 cells assessed cell growth at 10 uM after 48 hrs by sulforhodamine B assay relative to control
NCI/ADR-RES = test: Anticancer activity against human NCI/ADR-RES cells assessed cell growth at 10 uM after 48 hrs by sulforhodamine B assay relative to control
A549 = test: Anticancer activity against human A549 cells assessed cell growth at 10 uM after 48 hrs by sulforhodamine B assay relative to control
HL-60(TB) = test: Anticancer activity against human HL-60(TB) cells assessed cell growth at 10 uM after 48 hrs by sulforhodamine B assay relative to control
SK-MEL-5 = test: Anticancer activity against human SK-MEL-5 cells assessed cell growth at 10 uM after 48 hrs by sulforhodamine B assay relative to control
MOLT-4 = test: Anticancer activity against human MOLT4 cells assessed cell growth at 10 uM after 48 hrs by sulforhodamine B assay relative to control
SK-MEL-28 = test: Anticancer activity against human SK-MEL-28 cells assessed cell growth at 10 uM after 48 hrs by sulforhodamine B assay relative to control
NCI-H522 = test: Anticancer activity against human NCI-H522 cells assessed cell growth at 10 uM after 48 hrs by sulforhodamine B assay relative to control
SR = test: Anticancer activity against human SR cells assessed cell growth at 10 uM after 48 hrs by sulforhodamine B assay relative to control
Malme-3M = test: Anticancer activity against human MALME-3M cells assessed cell growth at 10 uM after 48 hrs by sulforhodamine B assay relative to control
UACC-62 = test: Anticancer activity against human UACC62 cells assessed cell growth at 10 uM after 48 hrs by sulforhodamine B assay relative to control
ACHN = test: Anticancer activity against human ACHN cells assessed cell growth at 10 uM after 48 hrs by sulforhodamine B assay relative to control
DU-145 = test: Anticancer activity against human DU145 cells assessed cell growth at 10 uM after 48 hrs by sulforhodamine B assay relative to control
MDA-MB-231 = test: Anticancer activity against human MDA-MB-231 cells assessed cell growth at 10 uM after 48 hrs by sulforhodamine B assay relative to control
OVCAR-3 = test: Anticancer activity against human OVCAR-3 cells assessed cell growth at 10 uM after 48 hrs by sulforhodamine B assay relative to control
BT-549 = test: Anticancer activity against human BT549 cells assessed cell growth at 10 uM after 48 hrs by sulforhodamine B assay relative to control
SNB-75 = test: Anticancer activity against human SNB75 cells assessed cell growth at 10 uM after 48 hrs by sulforhodamine B assay relative to control
NCI-H226 = test: Anticancer activity against human NCI-H226 cells assessed cell growth at 10 uM after 48 hrs by sulforhodamine B assay relative to control
MDA-MB-468 = test: Anticancer activity against human MDA-MB-468 cells assessed cell growth at 10 uM after 48 hrs by sulforhodamine B assay relative to control
U-251 = test: Anticancer activity against human U251 cells assessed cell growth at 10 uM after 48 hrs by sulforhodamine B assay relative to control
[1] = Anticancer activity against human RPMI8266 cells assessed cell growth at 10 uM after 48 hrs by sulforhodamine B assay relative to control
HCC 2998 = test: Anticancer activity against human HCC2998 cells assessed cell growth at 10 uM after 48 hrs by sulforhodamine B assay relative to control
CAKI-1 = test: Anticancer activity against human Caki1 cells assessed cell growth at 10 uM after 48 hrs by sulforhodamine B assay relative to control
COLO 205 = test: Anticancer activity against human COLO205 cells assessed cell growth at 10 uM after 48 hrs by sulforhodamine B assay relative to control
UACC-257 = test: Anticancer activity against human UACC257 cells assessed cell growth at 10 uM after 48 hrs by sulforhodamine B assay relative to control
NCI-H322M = test: Anticancer activity against human NCI-H322M cells assessed cell growth at 10 uM after 48 hrs by sulforhodamine B assay relative to control
OVCAR-4 = test: Anticancer activity against human OVCAR4 cells assessed cell growth at 10 uM after 48 hrs by sulforhodamine B assay relative to control
CCRF-CEM = test: Anticancer activity against human CCRF-CEM cells assessed cell growth at 10 uM after 48 hrs by sulforhodamine B assay relative to control
UO-31 = test: Anticancer activity against human UO31 cells assessed cell growth at 10 uM after 48 hrs by sulforhodamine B assay relative to control
SNB-19 = test: Anticancer activity against human SNB19 cells assessed cell growth at 10 uM after 48 hrs by sulforhodamine B assay relative to control
SN12C = test: Anticancer activity against human SN12C cells assessed cell growth at 10 uM after 48 hrs by sulforhodamine B assay relative to control
HT-29 = test: Anticancer activity against human HT-29 cells assessed cell growth at 10 uM after 48 hrs by sulforhodamine B assay relative to control
RXF 393 = test: Anticancer activity against human RXF393 cells assessed cell growth at 10 uM after 48 hrs by sulforhodamine B assay relative to control
NCI-H23 = test: Anticancer activity against human NCI-H23 cells assessed cell growth at 10 uM after 48 hrs by sulforhodamine B assay relative to control
SF-539 = test: Anticancer activity against human SF539 cells assessed cell growth at 10 uM after 48 hrs by sulforhodamine B assay relative to control
SK-MEL-2 = test: Anticancer activity against human SK-MEL-2 cells assessed cell growth at 10 uM after 48 hrs by sulforhodamine B assay relative to control
HOP-92 = test: Anticancer activity against human HOP92 cells assessed cell growth at 10 uM after 48 hrs by sulforhodamine B assay relative to control
NCI-H460 = test: Anticancer activity against human NCI-H460 cells assessed cell growth at 10 uM after 48 hrs by sulforhodamine B assay relative to control

Cn1cc[n+](CCO)c1.O=S(=O)([N-]S(=O)(=O)C(F)(F)F)C(F)(F)F
Activity (K562): 80.37% | Activity (IGROV-1): 89% | Activity (PC-3): 86.93% | Activity (M14): 102.65% | Activity (LOX IMVI): 90.65% | Activity (HOP-62): 90.22% | Activity (NCI/ADR-RES): 92.39% | Activity (A549): 99.55% | Activity (HL-60(TB)): 37.14% | Activity (SK-MEL-5): 100.98% | Activity (MOLT-4): 49.74% | Activity (SK-MEL-28): 125.37% | Activity (NCI-H522): 90.32% | Activity (SR): 119.61% | Activity (Malme-3M): 121.81% | Activity (UACC-62): 100.11% | Activity (ACHN): 97.02% | Activity (DU-145): 114.39% | Activity (MDA-MB-231): 104.59% | Activity (OVCAR-3): 120.42% | Activity (BT-549): 114.11% | Activity (SNB-75): 79.94% | Activity (NCI-H226): 101.7% | Activity (MDA-MB-468): 108.29% | Activity (U-251): 91.58% | Activity [1]: 72.12% | Activity (HCC 2998): 94.14% | Activity (CAKI-1): 90.82% | Activity (COLO 205): 132.21% | Activity (UACC-257): 93.35% | Activity (NCI-H322M): 94.56% | Activity (OVCAR-4): 100.13% | Activity (CCRF-CEM): 72.37% | Activity (UO-31): 80.89% | Activity (SNB-19): 93.36% | Activity (SN12C): 96.7% | Activity (HT-29): 112.28% | Activity (RXF 393): 95.99% | Activity (NCI-H23): 93.17% | Activity (SF-539): 99.95% | Activity (SK-MEL-2): 97.37% | Activity (HOP-92): 74.53% | Activity (NCI-H460): 114.83%

COCC[n+]1ccn(C)c1.O=S(=O)([N-]S(=O)(=O)C(F)(F)F)C(F)(F)F
Activity (K562): 109.67% | Activity (IGROV-1): 77.53% | Activity (PC-3): 78.17% | Activity (M14): 110.1% | Activity (LOX IMVI): 92.96% | Activity (HOP-62): 93.93% | Activity (NCI/ADR-RES): 100.1% | Activity (A549): 101.69% | Activity (HL-60(TB)): 103.77% | Activity (SK-MEL-5): 100.51% | Activity (MOLT-4): 105.9% | Activity (SK-MEL-28): 106.63% | Activity (NCI-H522): 84.3% | Activity (SR): 116.69% | Activity (Malme-3M): 125.61% | Activity (UACC-62): 105.79% | Activity (ACHN): 96.19% | Activity (DU-145): 99.43% | Activity (MDA-MB-231): 120.14% | Activity (OVCAR-3): 116.33% | Activity (BT-549): 96.44% | Activity (SNB-75): 80.79% | Activity (NCI-H226): 100.3% | Activity (MDA-MB-468): 106.36% | Activity (U-251): 91.58% | Activity [1]: 62.23% | Activity (HCC 2998): 101.04% | Activity (CAKI-1): 91.87% | Activity (COLO 205): 130.61% | Activity (UACC-257): 100.25% | Activity (NCI-H322M): 102.08% | Activity (OVCAR-4): 105.25% | Activity (CCRF-CEM): 55.66% | Activity (UO-31): 71.37% | Activity (SNB-19): 93.88% | Activity (SN12C): 96.96% | Activity (HT-29): 111.85% | Activity (RXF 393): 103.9% | Activity (NCI-H23): 96.12% | Activity (SF-539): 94.09% | Activity (SK-MEL-2): 93.96% | Activity (HOP-92): 71.88% | Activity (NCI-H460): 108.75%

CCCCCCCCCCCCCCCCCC[n+]1ccn(C)c1.FC(F)(F)C(F)(F)[P-](F)(F)(F)(C(F)(F)C(F)(F)F)C(F)(F)C(F)(F)F
Activity (K562): 26.87% | Activity (IGROV-1): -30.94% | Activity (PC-3): -57.75% | Activity (M14): -26.94% | Activity (LOX IMVI): -25.56% | Activity (HOP-62): -79.75% | Activity (NCI/ADR-RES): -50.87% | Activity (A549): -19.59% | Activity (HL-60(TB)): 15.34% | Activity (SK-MEL-5): -77.4% | Activity (MOLT-4): 17.16% | Activity (SK-MEL-28): -45.82% | Activity (NCI-H522): -63.43% | Activity (SR): 24.53% | Activity (Malme-3M): -51.72% | Activity (UACC-62): -73.94% | Activity (ACHN): -53.6% | Activity (DU-145): 7.06% | Activity (MDA-MB-231): -73.64% | Activity (OVCAR-3): -53.86% | Activity (BT-549): -56.11% | Activity (SNB-75): -47.53% | Activity (NCI-H226): -58.27% | Activity (MDA-MB-468): 5.93% | Activity (U-251): -39.24% | Activity [1]: 49.96% | Activity (HCC 2998): -80.57% | Activity (CAKI-1): -71.63% | Activity (COLO 205): 5.01% | Activity (UACC-257): -53.5% | Activity (NCI-H322M): 5.98% | Activity (OVCAR-4): -18.12% | Activity (CCRF-CEM): 35.34% | Activity (UO-31): -55.23% | Activity (SNB-19): -34.47% | Activity (SN12C): -75.69% | Activity (HT-29): -41.19% | Activity (RXF 393): -44.46% | Activity (NCI-H23): -62.26% | Activity (SF-539): -80.42% | Activity (SK-MEL-2): -54.7% | Activity (HOP-92): -39.5% | Activity (NCI-H460): -53.73%

CCCCCCCCCCCCCCCCCC[n+]1ccn(C)c1.O=S(=O)([N-]S(=O)(=O)C(F)(F)F)C(F)(F)F
Activity (K562): 17.9% | Activity (IGROV-1): -43.09% | Activity (PC-3): -62.3% | Activity (M14): -30.74% | Activity (LOX IMVI): -52.24% | Activity (HOP-62): -74.14% | Activity (NCI/ADR-RES): -7.98% | Activity (A549): -47.24% | Activity (HL-60(TB)): 2.22% | Activity (SK-MEL-5): -74.13% | Activity (MOLT-4): 9.25% | Activity (SK-MEL-28): -52.79% | Activity (NCI-H522): -74.3% | Activity (SR): 19% | Activity (Malme-3M): -49.87% | Activity (UACC-62): -82.14% | Activity (ACHN): -43.53% | Activity (DU-145): -8.63% | Activity (MDA-MB-231): -80.16% | Activity (OVCAR-3): -56.27% | Activity (BT-549): -54.97% | Activity (SNB-75): -55.13% | Activity (NCI-H226): -61.74% | Activity (MDA-MB-468): -20.4% | Activity (U-251): -63.9% | Activity [1]: 75.58% | Activity (HCC 2998): -80.86% | Activity (CAKI-1): -78.63% | Activity (COLO 205): -47.26% | Activity (UACC-257): -47.9% | Activity (NCI-H322M): 6.16% | Activity (OVCAR-4): -13.29% | Activity (CCRF-CEM): 67.84% | Activity (UO-31): -66.09% | Activity (SNB-19): -68% | Activity (SN12C): -68.39% | Activity (HT-29): -36.79% | Activity (RXF 393): -62.07% | Activity (NCI-H23): -44.29% | Activity (SF-539): -82.94% | Activity (SK-MEL-2): -51.69% | Activity (HOP-92): -66.2% | Activity (NCI-H460): -51.32%
